Laboratory results reported in patent US11214564B2, “Compounds with thymine skeleton for use in medicine” (TECHNISCHE UNIVERSITÄT DRESDEN, priority 2019, dated 2022).

Target: HSP27 (Homo sapiens, UniProt P04792)
Experiment: Aggregation assay: HSP27 chaperone activity on heat-induced aggregation of citrate synthase
Assay type: biochemical
Details: compound 10 μM; 1.44 μM CS, 481 nM HSP27, 43° C., 500 nm
Experimental: To test how small molecules affect the chaperone activity of HSP27, misfolding and aggregation of citrate synthase (CS), a well-known in vitro client protein of HSP27, was measured. Citrate synthase misfolds and aggregates when exposed to heat shock at 43° C. This heat denaturation is prevented or delayed in the presence of HSP27 (CS+HSP27) (Jakob et al. (1993)). […] The samples were incubated at 43° C. and the aggregation behavior of CS was monitored in a spectrometer (PerkinElmer LS55) at a wavelength of 500 nm. Substances inhibiting HSP27's chaperone activity lead to continued denaturation of the client protein and its aggregation in solution. This inhibition correlates with the strength of the interaction between HSP27 and the test substance, which is related to its binding efficiency.
In the reference experiment BVDU (CS+HSP27+BVDU) was tested at a concentration of 750 μM as previously described (Heinrich et al. (2016)).
The compounds according to the invention were tested at a concentration of 10 μM.

Sequence of HSP27 (P04792 whole entry): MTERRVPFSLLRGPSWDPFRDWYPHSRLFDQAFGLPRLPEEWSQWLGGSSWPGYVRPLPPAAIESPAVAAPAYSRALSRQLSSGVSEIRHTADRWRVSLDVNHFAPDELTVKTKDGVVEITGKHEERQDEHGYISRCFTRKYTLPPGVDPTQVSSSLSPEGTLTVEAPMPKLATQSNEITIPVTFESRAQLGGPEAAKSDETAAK

| SMILES | aggregation value related to the value from reference experiment (CS + HSP27 + BVDU), which was set at 1.0 |
| --- | --- |
| O=C(Nc1ccc(-n2cc(Cl)c(=O)[nH]c2=O)cc1)c1cccc(-c2cccc(OC(F)(F)F)c2)c1 [Compound 48, N-(4-(5-chloro-2,4-dioxo-3,4-dihydro-pyrimidin-1(2H)-yl)phenyl)-3′-(trifluoro-methoxy)-[1,1′-biphenyl]-3-carboxamide] | 0.7 |
| O=C(Cc1cccc(-c2cccc(OC(F)(F)F)c2)c1)Nc1cccc(-n2ccc(=O)[nH]c2=O)c1 [Compound 39, N-(3-(2,4-dioxo-3,4-dihydro-pyrimidin-1(2H)-yl)phenyl)-2-(3′-(trifluoro-methoxy)-[1,1′-biphenyl]-3-yl) acetamide] | 1.21 |
| Cc1cn(-c2ccc(NC(=O)Cc3cccc(-c4cccc(Cl)c4)c3)cc2)c(=O)[nH]c1=O [Compound 2, 2-(3′-chloro-[1,1′-biphenyl]-3-yl)-N-(4-(5-methyl-2,4-dioxo-3,4-dihydro-pyrimidin-1(2H)-yl)phenyl) acetamide] | 1.55 |
| COc1ccc(-c2cccc(C(=O)Nc3ccc(-n4cc(C)c(=O)[nH]c4=O)cc3)c2)cc1Cl [Compound 45, 3′-chloro-4′-methoxy-N-(4-(5-methyl-2,4-dioxo-3,4-dihydro-pyrimidin-1(2H)-yl)phenyl)-[1,1′-biphenyl]-3-carboxamide] | 0.88 |
| COc1ccc(-c2cccc(CC(=O)Nc3cccc(-n4ccc(=O)[nH]c4=O)c3)c2)cc1Cl [Compound 41, 2-(3′-chloro-4′-methoxy-[1,1′-biphenyl]-3-yl)-N-(3-(2,4-dioxo-3,4-dihydro-pyrimidin-1(2H)-yl)phenyl) acetamide] | 1.24 |
| COc1ccc(-c2cccc(C(=O)Nc3ccc(Cn4ccc(=O)[nH]c4=O)cc3)c2)cc1Cl [Compound 37, 3′-chloro-N-(4-((2,4-dioxo-3,4-dihydro-pyrimidin-1(2H)-yl)methyl)phenyl)-4′-methoxy-[1,1′-biphenyl]-3-carboxamide] | 0.91 |
| O=C(Cc1cccc(-c2ccc(Cl)cc2Cl)c1)Nc1ccc(-n2cc(F)c(=O)[nH]c2=O)cc1 [Compound 20, 2-(2′,4′-dichloro-[1,1′-biphenyl]-3-yl)-N-(4-(5-fluoro-2,4-dioxo-3,4-dihydro-pyrimidin-1(2H)-yl)phenyl) acetamide] | 0.96 |
| O=C(Cc1cccc(-c2cccc(OC(F)(F)F)c2)c1)Nc1ccc(-n2ccc(=O)[nH]c2=O)c(Cl)c1 [Compound 19, N-(3-chloro-4-(2,4-dioxo-3,4-dihydro-pyrimidin-1(2H)-yl)phenyl)-2-(3′-(trifluoro-methoxy)-[1,1′-biphenyl]-3-yl) acetamide] | 0.97 |
| Cc1cn(-c2ccc(NC(=O)Cc3cccc(-c4ccc(Cl)cc4)c3)cc2)c(=O)[nH]c1=O [Compound 15, 2-(4′-chloro-[1,1′-biphenyl]-3-yl)-N-(4-(5-methyl-2,4-dioxo-3,4-dihydropyrimidin-1(2H)-yl)phenyl) acetamide] | 1.11 |
| O=C(Cc1cccc(-c2cccc(OC(F)(F)F)c2)c1)Nc1ccc(-n2cc(Cl)c(=O)[nH]c2=O)cc1 [Compound 17, N-(4-(5-chloro-2,4-dioxo-3,4-dihydro-pyrimidin-1(2H)-yl)phenyl)-2-(3′-(trifluoro-methoxy)-[1,1′-biphenyl]-3-yl) acetamide] | 1.01 |

Continued, values first:

| aggregation value related to the value from reference experiment (CS + HSP27 + BVDU), which was set at 1.0 | SMILES |
| --- | --- |
| 0.94 | O=C(Cc1cccc(-c2ccc(Cl)c(Cl)c2)c1)Nc1ccc(-n2ccc(=O)[nH]c2=O)c(Cl)c1 [Compound 21, N-(3-chloro-4-(2,4-dioxo-3,4-dihydro-pyrimidin-1(2H)-yl)phenyl)-2-(3′,4′-dichloro-[1,1′-biphenyl]-3-yl)acetamide] |
| 0.73 | O=C(Cc1cccc(-c2ccc(Cl)c(Cl)c2)c1)Nc1ccc(-n2cc(Cl)c(=O)[nH]c2=O)cc1 [Compound 51, N-(4-(5-chloro-2,4-dioxo-3,4-dihydro-pyrimidin-1(2H)-yl)phenyl)-2-(3′,4′-dichloro-[1,1′-biphenyl]-3-yl)acetamide] |
| 1.16 | Cc1ccc(-c2cccc(C(=O)Nc3ccc(-n4cc(C)c(=O)[nH]c4=O)cc3)c2)cc1Cl [Compound 49, 3′-chloro-4′-methyl-N-(4-(5-methyl-2,4-dioxo-3,4-dihydro-pyrimidin-1(2H)-yl)phenyl)-[1,1′-biphenyl]-3-carboxamide] |
| 0.83 | COc1ccc(-c2cccc(C(=O)Nc3ccc(-n4ccc(=O)[nH]c4=O)cc3)c2)cc1Cl [Compound 44, 3′-chloro-N-(4-(2,4-dioxo-3,4-dihydro-pyrimidin-1(2H)-yl)phenyl)-4′-methoxy-[1,1′-biphenyl]-3-carboxamide] |
| 1.44 | Cc1cn(-c2ccc(NC(=O)Cc3cccc(-c4ccc(Cl)c(Cl)c4)c3)cc2)c(=O)[nH]c1=O [Compound 3, 2-(3′,4′-dichloro-[1,1′-biphenyl]-3-yl)-N-(4-(5-methyl-2,4-dioxo-3,4-dihydro-pyrimidin-1(2H)-yl)phenyl) acetamide] |
| 1.42 | O=C(NCc1cn(-c2ccc(-n3ccc(=O)[nH]c3=O)cc2)nn1)c1ccc(Cl)c(Cl)c1 [Compound 54, 3,4-Dichloro-N-((1-(4-(2,4-dioxo-3,4-dihydropyrimidin-1(2H)-yl)phenyl)-1H-1,2,3-triazol-4-yl)methyl)benzamide] |
| 1.2 | COc1ccc(-c2cccc(CC(=O)Nc3ccc(-n4ccc(=O)[nH]c4=O)cc3C)c2)cc1Cl [Compound 14, 2-(3′-chloro-4′-methoxy-[1,1′-biphenyl]-3-yl)-N-(4-(2,4-dioxo-3,4-dihydro-pyrimidin-1(2H)-yl)-2-methyl-phenyl)acetamide] |
| 1.39 | O=c1ccn(-c2ccc(-n3cc(-c4ccc(Cl)c(Cl)c4)nn3)cc2)c(=O)[nH]1 [Compound 56, 1-(4-(4-(3,4-Dichlorophenyl)-1H-1,2,3-triazol-1-yl)phenyl)pyrimidine-2,4(1H,3H)-dione] |
| 1.8 | O=C(Nc1ccc(Cn2ccc(=O)[nH]c2=O)cc1)c1cccc(-c2ccc(Cl)c(Cl)c2)c1 [Compound 34, 3′,4′-dichloro-N-(4-((2,4-dioxo-3,4-dihydro-pyrimidin-1(2H)-yl)methyl)phenyl)-[1,1′-biphenyl]-3-carboxamide] |
| 0.8 | Cc1ccc(-c2cccc(CC(=O)Nc3ccc(-n4ccc(=O)[nH]c4=O)cc3)c2)cc1Cl [Compound 29, 2-(3′-chloro-4′-methyl-[1,1′-biphenyl]-3-yl)-N-(4-(2,4-dioxo-3,4-dihydro-pyrimidin-1(2H)-yl)phenyl) acetamide] |
| 0.83 | COc1ccc(-c2cccc(CC(=O)Nc3ccc(-n4ccc(=O)[nH]c4=O)cc3)c2)cc1Cl [Compound 27, 2-(3′-chloro-4′-methoxy-[1,1′-biphenyl]-3-yl)-N-(4-(2,4-dioxo-3,4-dihydro-pyrimidin-1(2H)-yl)phenyl) acetamide] |
| 1 | Cc1cc(-n2ccc(=O)[nH]c2=O)ccc1NC(=O)Cc1cccc(-c2ccc(Cl)c(Cl)c2)c1 [Compound 18, 2-(3′,4′-dichloro-[1,1′-biphenyl]-3-yl)-N-(4-(2,4-dioxo-3,4-dihydro-pyrimidin-1(2H)-yl)-2-methyl-phenyl)acetamide] |
| 0.79 | O=C(Nc1ccc(-n2ccc(=O)[nH]c2=O)cc1)c1cccc(-c2cccc(Cl)c2)c1 [Compound 43, 3′-chloro-N-(4-(2,4-dioxo-3,4-dihydro-pyrimidin-1(2H)-yl)phenyl)-[1,1′-biphenyl]-3-carboxamide] |
| 0.88 | O=C(Cc1cccc(-c2ccc(Cl)cc2)c1)Nc1ccc(-n2ccc(=O)[nH]c2=O)cc1 [Compound 24, 2-(4′-chloro-[1,1′-biphenyl]-3-yl)-N-(4-(2,4-dioxo-3,4-dihydro-pyrimidin-1(2H)-yl)phenyl) acetamide] |
| 1.8 | O=C(Cc1cccc(-c2ccc(Cl)c(Cl)c2)c1)Nc1cccc(-n2ccc(=O)[nH]c2=O)c1 [Compound 40, 2-(3′,4′-dichloro-[1,1′-biphenyl]-3-yl)-N-(3-(2,4-dioxo-3,4-dihydro-pyrimidin-1(2H)-yl)phenyl) acetamide] |
